In ChEMBL document CHEMBL1201862, “PubChem BioAssay data set” (2004):
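Interpolation was linear, between the two tested concentrations surrounding the appropriate level; five concentrations were tested over 48 hours in 96-well plates. GI50 = concentration required for 50% inhibition of growth.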 Active and inactive are the calls of the source. No stated cut-off is given here; in the data, active = GI50 up to about 1.1 µM and inactive = higher.

How the values were obtained:
Experiment in all cases: NCI-60 cell line screen, 48 h
DU-145 = test system: DU-145
M14 = test system: M14
SK-MEL-28 = test system: SK-MEL-28
SF-268 = test system: SF-268
SR = test system: SR
SK-MEL-5 = test system: SK-MEL-5
786-0 = test system: 786-0
U-251 = test system: U-251
A549 = test system: A549
SNB-19 = test system: SNB-19
OVCAR-5 = test system: OVCAR-5
T47D = test system: T47D
SF-295 = test system: SF-295
Malme-3M = test system: Malme-3M
MDA-MB-435 = test system: MDA-MB-435
HCT-116 = test system: HCT-116
PC-3 = test system: PC-3
HT-29 = test system: HT-29
SN12C = test system: SN12C
MDA-N = test system: MDA-N
RXF 393 = test system: RXF 393
TK-10 = test system: TK-10
SK-MEL-2 = test system: SK-MEL-2
SNB-75 = test system: SNB-75
IGROV-1 = test system: IGROV-1
KM12 = test system: KM12
HL-60 = test system: HL-60
A498 = test system: A498
MOLT-4 = test system: MOLT-4
UACC-257 = test system: UACC-257
MDA-MB-231 = test system: MDA-MB-231
HCT-15 = test system: HCT-15
NCI/ADR-RES = test system: NCI/ADR-RES
Hs-578T = test system: Hs-578T
NCI-H522 = test system: NCI-H522
NCI-H226 = test system: NCI-H226
CAKI-1 = test system: CAKI-1
UO-31 = test system: UO-31
HCC 2998 = test system: HCC 2998
OVCAR-8 = test system: OVCAR-8
RPMI-8226 = test system: RPMI-8226
MCF7 = test system: MCF7
K562 = test system: K562
HOP-92 = test system: HOP-92
SF-539 = test system: SF-539
NCI-H23 = test system: NCI-H23
OVCAR-3 = test system: OVCAR-3
ACHN = test system: ACHN
SW-620 = test system: SW-620
BT-549 = test system: BT-549
HOP-62 = test system: HOP-62
NCI-H460 = test system: NCI-H460

Measured: GI50

CCCCCC(C)SC1(C(=O)OC)CC(OC(C)=O)C(NC(C)=O)C([C@H](OC(C)=O)[C@@H](COC(C)=O)OC(C)=O)O1 (some centres not stated)
active: SK-MEL-2 0.245 µM
inactive: DU-145 > 100 µM | M14 71 µM | SK-MEL-28 > 100 µM | SF-268 > 100 µM | SR 64 µM | SK-MEL-5 91.2 µM | 786-0 47 µM | U-251 > 100 µM | A549 21.2 µM | SNB-19 > 100 µM | OVCAR-5 > 100 µM | T47D 45.6 µM | SF-295 > 100 µM | Malme-3M 44.1 µM | MDA-MB-435 70.1 µM | HCT-116 43.9 µM | PC-3 67.3 µM | HT-29 22.5 µM | SN12C > 100 µM | MDA-N 90.6 µM | RXF 393 88.1 µM | TK-10 > 100 µM | SNB-75 > 100 µM | IGROV-1 > 100 µM | KM12 66.7 µM | HL-60 42.5 µM | A498 67.1 µM | MOLT-4 27.3 µM | UACC-257 33 µM | MDA-MB-231 41.9 µM | NCI/ADR-RES > 100 µM | Hs-578T 29.4 µM | NCI-H522 51.2 µM | NCI-H226 40.6 µM | CAKI-1 93.3 µM | UO-31 38.5 µM | HCC 2998 30.2 µM | OVCAR-8 83.2 µM | RPMI-8226 33.7 µM | MCF7 43.7 µM | K562 92.9 µM | HOP-92 44.4 µM | SF-539 22.3 µM | NCI-H23 > 100 µM | OVCAR-3 90.4 µM | ACHN > 100 µM | SW-620 > 100 µM | BT-549 55.6 µM | HOP-62 > 100 µM | NCI-H460 78.7 µM
34.5 µM: HCT-15
